Measured values from patent publication US20080276732A1, “INDICATOR FOR ORALLY ADMINISTERED COMPOSITIONS” (MULTI FORMULATIONS LTD., priority 2007, published 2008).
Where “and” joins values, the source holds several entries; their conditions need not be identical. Identical values can stand only once. Entries after “also recorded” stand apart in the source; their conditions may differ. Like-named read-outs stand apart in the source and are kept apart here.

Key:
[1] = tested on: individuals; settings: Niacin at pharmacologically active doses; Benyo et al. 2005; cited from earlier work
[2] = tested on: subjects; settings: single 30 mg oral dose of Niacin
Experimental: In order to test the ability of orally administered Niacin to induce a sensory effect a test was conducted. Five subjects were given a capsule containing Niacin and asked to report on any perceived sensory effects. Each capsule contained 30 mg of Niacin and filled to 150 mg with lactose as a filler-binder. Subjects were informed of the capsule contents and of possible effects. Subjects were asked to report any sensory effects felt, the time to onset and the duration of any effects.

[3] = tested on: subjects; assay: Testing the efficacy of Picamilon in capsule form: perceived sensory effects after oral administration; type: in vivo, human; settings: single 100 mg oral dose of Picamilon
Experimental: (§1) In order to test the ability of orally administered Picamilon to induce a sensory effect a test was conducted. Six subjects were given a capsule containing Picamilon and asked to report on any perceived sensory effects. Each capsule contained 100 mg of Picamilon and filled to 150 mg with lactose as a filler-binder.

[4] = tested on: subjects; assay: Testing the efficacy of Yohimbine in capsule form: perceived sensory effects after oral administration; type: in vivo, human
Experimental: as §1, with “Yohimbine” for “Picamilon”, “Four” for “Six”, “5” for “100”

[5] = per subject, subject 1 separately for warmth and tingling
[6] = single 5 mg oral dose of Yohimbine, per subject

Q: With O=C(O)c1cccnc1 [Niacin, nicotinic acid] as the compound, how does the “duration of the flushing effect” value [1] read?
A: The value was “about 1 hr”.

Q: And the Duration ([2]; capsule, one line per subject)?
A: Its Duration is 45 min (2×) and 15 min.

Q: What about the “Time to Onset” value ([2]; capsule, one line per subject) of the same compound?
A: Its value is 10 to 15 min and 20 min and 15 min.

Q: And the “subjects who experienced transient sensory effects” value ([2]; five subjects)?
A: The value was “three of the five”.

Q: What about the “time until the individual perceives a sensory effect (summary)” value ([2]; summary of Table 1) of the same compound?
A: The value was at most 15 min.

Q: Which results are given for O=C(O)CCCNC(=O)c1cccnc1 [Picamilon, N-nicotinoyl-gamma-aminobutyric acid]?
A: Sensory Effect(s) ([3]; capsule, one line per subject (1-6)): tingling; also recorded: relaxation; also recorded: warmth - body; Duration ([3]; per subject): 1.5 h; Duration [3, 5]: 15-20 min and 45 min and 5 min (warmth) and 15 min; Time to Onset [3, 5]: 15 min and 15-20 min (2×) and 10 min (warmth) and 30 min; subjects who reported noticeable effects ([3]; six subjects): four of the six

Q: Which “onset time and duration of perceived sensory effects on average compared with Niacin and Picamilon” value ([4]; 5 mg Yohimbine, oral) does the source give for COC(=O)[C@@H]1[C@H]2C[C@H]3c4[nH]c5ccccc5c4CCN3C[C@@H]2CC[C@@H]1O [Yohimbine] here?
A: Its value is “longer onset time and longer duration”.

Q: And the “subjects who reported noticeable effects” value ([4]; single 5 mg oral dose of Yohimbine, four subjects)?
A: Its value is “three of the four”.

Q: What about the Duration [4, 6] of the same compound?
A: The Duration was 10 to 15 min and 60 min and 120 min.

Q: And the “Time to Onset” value [4, 6]?
A: The value was 1 h and 0.5 h and 0.25 h.
